Patent US20230085307A1, “PYRIDAZINONE COMPOUND AND HERBICIDE” (NISSAN CHEMICAL CORPORATION, priority 2019, published 2023)

What was measured:
[1] = tested on: barnyard grass; test: Test Example 3: herbicidal effect by foliage application, Wagner pot (Table 18, symbol H); type: in vivo, barnyard grass (Echinochloa crus-galli); details: 320 g/ha
Summary of the method: (§1)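 Plants were sown in alluvial soil held under 0.1–0.5 cm standing water and grown 14 days in a greenhouse at 25–30 °C. An emulsifiable formulation, water-diluted to the set dose, was then sprayed onto the foliage, and effects were scored three weeks later using previously defined criteria.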

[2] = tested on: Chinese sprangletop; test: Test Example 3: herbicidal effect by foliage application, Wagner pot (Table 18, symbol D); type: in vivo, chinese sprangletop (Leptochloa chinensis); details: 320 g/ha
Summary of the method: as §1

[3] = tested on: rice flat sedge; test: Test Example 3: herbicidal effect by foliage application, Wagner pot (Table 18, symbol E); type: in vivo, rice flat sedge (Cyperus iria); details: 320 g/ha
Summary of the method: as §1

[4] = tested on: southern crabgrass; test: Test Example 5: herbicidal effect by foliage application, plastic box (Table 20, symbol F); type: in vivo, southern crabgrass (Digitaria ciliaris)
Summary of the method: (§2)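 Plants sown in sterilized diluvial soil and grown 14 days in a greenhouse at 25° C to 30° C, then sprayed on the foliage with the compound's emulsion diluted in water to a predetermined herbicide amount. Injury to weeds and crops scored three weeks after application on a visual rating scale.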

[5] = tested on: green foxtail; test: Test Example 5: herbicidal effect by foliage application, plastic box (Table 20, symbol G); type: in vivo, green foxtail (Setaria viridis)
Summary of the method: as §2

[6] = tested on: barnyard grass; test: Test Example 5: herbicidal effect by foliage application, plastic box (Table 20, symbol H); type: in vivo, barnyard grass (Echinochloa crus-galli)
Summary of the method: as §2

[7] = tested on: wild oat; test: Test Example 5: herbicidal effect by foliage application, plastic box (Table 20, symbol I); type: in vivo, wild oat (Avena fatua)
Summary of the method: as §2

[8] = tested on: blackgrass; test: Test Example 5: herbicidal effect by foliage application, plastic box (Table 20, symbol J); type: in vivo, blackgrass (Alopecurus myosuroides)
Summary of the method: as §2

[9] = tested on: Italian ryegrass; test: Test Example 5: herbicidal effect by foliage application, plastic box (Table 20, symbol K); type: in vivo, Italian ryegrass (Lolium multiflorum)
Summary of the method: as §2

[10] = tested on: windgrass; test: Test Example 5: herbicidal effect by foliage application, plastic box (Table 20, symbol L); type: in vivo, windgrass (Apera spica-venti)
Summary of the method: as §2

[11] = tested on: velvetleaf; test: Test Example 5: herbicidal effect by foliage application, plastic box (Table 20, symbol M); type: in vivo, velvetleaf (Abutilon theophrasti)
Summary of the method: as §2

[12] = tested on: redroot pigweed; test: Test Example 5: herbicidal effect by foliage application, plastic box (Table 20, symbol N); type: in vivo, redroot pigweed (Amaranthus retroflexus)
Summary of the method: as §2

[13] = tested on: lambsquarters; test: Test Example 5: herbicidal effect by foliage application, plastic box (Table 20, symbol O); type: in vivo, lambsquarters (Chenopodium album)
Summary of the method: as §2

[14] = tested on: chickweed; test: Test Example 5: herbicidal effect by foliage application, plastic box (Table 20, symbol P); type: in vivo, common chickweed (Stellaria media)
Summary of the method: as §2

[15] = tested on: persian speedwell; test: Test Example 5: herbicidal effect by foliage application, plastic box (Table 20, symbol R); type: in vivo, Persian speedwell (Veronica persica)
Summary of the method: as §2

[16] = foliage application, AAH 320 g/ha, three weeks after application
[17] = 320 g/ha, foliage application after 14-day growth, evaluated three weeks after application
[18] = amount of applied herbicide 320 g/ha, foliage application after 14-day growth, evaluated three weeks after application

## CCCC(=O)Oc1c(OC)nn(C)c(=O)c1-c1c(-c2cccc(OC(F)(F)F)c2)sc2ccccc12 [1-161]
[1]
  herbicidal effect on H (barnyard grass), rating 0-5: 1 (Herbicidal rate of 5% or more and less than 20%)
[2]
  herbicidal effect on D (Chinese sprangletop), rating 0-5: 0 (Herbicidal rate of 5% or less (almost no effect))
[3]
  herbicidal effect on E (rice flat sedge), rating 0-5: 3 (Herbicidal rate of 40% or more and less than 70%)
[4]; [16]
  F: southern crabgrass, herbicidal effect: 0 (Herbicidal rate of 5% or less (almost no effect))
[5]; [16]
  G: green foxtail, herbicidal effect: 0 (Herbicidal rate of 5% or less (almost no effect))
[6]; [16]
  H: barnyard grass, herbicidal effect: 0 (Herbicidal rate of 5% or less (almost no effect))
[7]; [16]
  I: wild oat, herbicidal effect: 0 (Herbicidal rate of 5% or less (almost no effect))
[8]; [16]
  J: blackgrass, herbicidal effect: 0 (Herbicidal rate of 5% or less (almost no effect))
[9]; [16]
  K: Italian ryegrass, herbicidal effect: 0 (Herbicidal rate of 5% or less (almost no effect))
[10]; [16]
  L: windgrass, herbicidal effect: 0 (Herbicidal rate of 5% or less (almost no effect))
[11]; [16]
  M: velvetleaf, herbicidal effect: 1 (Herbicidal rate of 5% or more and less than 20%)
[12]; [16]
  N: redroot pigweed, herbicidal effect: 3 (Herbicidal rate of 40% or more and less than 70%)
[13]; [16]
  O: lambsquarters, herbicidal effect: 0 (Herbicidal rate of 5% or less (almost no effect))
[14]; [16]
  P: chickweed, herbicidal effect: 0 (Herbicidal rate of 5% or less (almost no effect))
[15]; [16]
  R: persian speedwell, herbicidal effect: 0 (Herbicidal rate of 5% or less (almost no effect))

## CCCC(=O)Oc1c(C)nn(C)c(=O)c1-c1c(-c2ccc(OC(F)(F)F)cc2)sc2cc(Cl)ccc12 [3-150]
[1]
  herbicidal effect on barnyard grass (H): 5 (Herbicidal rate of 90% or more (almost completely withered))
[2]
  herbicidal effect on Chinese sprangletop (D): 3 (Herbicidal rate of 40% or more and less than 70%)
[3]
  herbicidal effect on rice flat sedge (E): 2 (Herbicidal rate of 20% or more and less than 40%)
[4]; [17]
  herbicidal effect on F: southern crabgrass (evaluation grade 0-5): 0 (Herbicidal rate of 5% or less (almost no effect))
[5]; [17]
  herbicidal effect on G: green foxtail (evaluation grade 0-5): 0 (Herbicidal rate of 5% or less (almost no effect))
[6]; [17]
  herbicidal effect on H: barnyard grass (evaluation grade 0-5): 3 (Herbicidal rate of 40% or more and less than 70%)
[7]; [17]
  herbicidal effect on I: wild oat (evaluation grade 0-5): 0 (Herbicidal rate of 5% or less (almost no effect))
[8]; [17]
  herbicidal effect on J: blackgrass (evaluation grade 0-5): 0 (Herbicidal rate of 5% or less (almost no effect))
[9]; [17]
  herbicidal effect on K: Italian ryegrass (evaluation grade 0-5): 0 (Herbicidal rate of 5% or less (almost no effect))
[10]; [17]
  herbicidal effect on L: windgrass (evaluation grade 0-5): 0 (Herbicidal rate of 5% or less (almost no effect))
[11]; [17]
  herbicidal effect on M: velvetleaf (evaluation grade 0-5): 2 (Herbicidal rate of 20% or more and less than 40%)
[12]; [17]
  herbicidal effect on N: redroot pigweed (evaluation grade 0-5): 3 (Herbicidal rate of 40% or more and less than 70%)
[13]; [17]
  herbicidal effect on O: lambsquarters (evaluation grade 0-5): 4 (Herbicidal rate of 70% or more and less than 90%)
[14]; [17]
  herbicidal effect on P: chickweed (evaluation grade 0-5): 3 (Herbicidal rate of 40% or more and less than 70%)
[15]; [17]
  herbicidal effect on R: persian speedwell (evaluation grade 0-5): 5 (Herbicidal rate of 90% or more (almost completely withered))

## CCSc1cccc(-c2sc3c(Cl)cccc3c2-c2c(O)c(C)nn(C)c2=O)c1 [4-092]
[1]
  herbicidal effect on barnyard grass (H): 5 (Herbicidal rate of 90% or more (almost completely withered))
[2]
  herbicidal effect on Chinese sprangletop (D): 3 (Herbicidal rate of 40% or more and less than 70%)
[3]
  herbicidal effect on rice flat sedge (E): 4 (Herbicidal rate of 70% or more and less than 90%)
[4]; [18]
  Herbicidal effect by foliage application, F: southern crabgrass: 4 (Herbicidal rate of 70% or more and less than 90%)
[5]; [18]
  Herbicidal effect by foliage application, G: green foxtail: 3 (Herbicidal rate of 40% or more and less than 70%)
[6]; [18]
  Herbicidal effect by foliage application, H: barnyard grass: 3 (Herbicidal rate of 40% or more and less than 70%)
[7]; [18]
  Herbicidal effect by foliage application, I: wild oat: 1 (Herbicidal rate of 5% or more and less than 20%)
[8]; [18]
  Herbicidal effect by foliage application, J: blackgrass: 0 (Herbicidal rate of 5% or less (almost no effect))
[9]; [18]
  Herbicidal effect by foliage application, K: Italian ryegrass: 2 (Herbicidal rate of 20% or more and less than 40%)
[10]; [18]
  Herbicidal effect by foliage application, L: windgrass: 5 (Herbicidal rate of 90% or more (almost completely withered))
[11]; [18]
  Herbicidal effect by foliage application, M: velvetleaf: 3 (Herbicidal rate of 40% or more and less than 70%)
[12]; [18]
  Herbicidal effect by foliage application, N: redroot pigweed: 5 (Herbicidal rate of 90% or more (almost completely withered))
[13]; [18]
  Herbicidal effect by foliage application, O: lambsquarters: 3 (Herbicidal rate of 40% or more and less than 70%)
[14]; [18]
  Herbicidal effect by foliage application, P: chickweed: 4 (Herbicidal rate of 70% or more and less than 90%)
[15]; [18]
  Herbicidal effect by foliage application, R: persian speedwell: 5 (Herbicidal rate of 90% or more (almost completely withered))
